Laboratory results taken from patent publication US6538033B2, “Nitric oxide donor compounds” (Huntington Medical Research Institutes, priority 2000, dated 2003).

Key:
washed platelets = test: Nitric oxide generation in vitro in the presence of washed platelets (chemiluminescence); assay type: cell-based, human; settings: B-NOD 10, 100 or 1000 μM
Procedure: (§1) Venous blood was collected from healthy volunteers who had not previously been taking any drugs for at least two weeks; EDTA was used as an anticoagulant. Washed platelets were prepared as described in Radomski, M. and Moncada, S. (1983) An improved method for washing of human platelets with prostacyclin. Thromb Res 83,383-389, the disclosure of which is incorporated herein by reference, with some modifications. In brief, blood was centrifuged for 10 minutes at 200 g, and the resultant platelet rich plasma was removed. It was recentrifuged at 500 g for 10 minutes. The supernatant was discarded and the pellet was resuspended in Tyrode's solution. Platelet concentration was adjusted to 2×10^8 platelets/ml using a Coulter Counter (Model ZBI, Beckman-Coulter, Fullerton, Calif.). […]
(§2) The supernatant was analyzed for nitric oxide generation by chemiluminescence. […] Chemiluminescence was measured using a reducing system consisting of a ferrocene derivative dissolved in acetonitrile containing 1% perchloric acid, as described in Termin, A., Hoffmann, M. and Bing, R. J. (1992) A simplified method for the determination of nitric oxide in biological solutions. […] Under this condition, NO2 in the injected samples was reduced to NO and detected by chemiluminescence with the NO-analyzer (270 B, Sievers Res. Inc., Boulder, Colo.). […]

[1] = Nitric oxide generation in vitro, spontaneous release in the absence of washed platelets (chemiluminescence); settings: without platelets, B-NOD 10, 100 or 1000 μM
Procedure: as §1, §2

[2] = Blood pressure and heart rate after oral administration; assay type: in vivo, New Zealand White male rabbits; settings: 80 mg/kg orally, rabbits; one, three and five hours following administration
Procedure: (§3) New Zealand White male rabbits were given 80 mg/kg of B-NOD. B-NOD was dissolved in 2 ml DMSO, suspended in 8 ml carboxymethylcellulose (0.5%) and administered orally. Blood (1 ml) was drawn from the ear vein using heparinized syringes before and 10 minutes, 30 minutes, 1 hour, 3 hours, 5 hours, 7 hours, and 24 hours following B-NOD administration. Blood samples were centrifuged at 1200 g for 10 minutes and deproteinized by an ultrafiltration device (MPS Micropartition, Millipore Corporation, Bedford, Mass.) and centrifuged again at 2500 g for 90 minutes. Plasma NOx was measured by chemiluminescence as described above.
(§4) Heart rate and systolic and diastolic blood pressures were measured through a 22 gauge by one inch catheter inserted into the ear artery connected to a DIGI-MED™Heart Performance Analyzer 100 (Louisville, Ky.). Determination of blood pressure and heart rate were carried out prior to and 1, 3, 5 hours after B-NOD administration. FIG. 4 illustrates concentrations of NOx in plasma of animals up to 24 hours following administration of B-NOD.
Several NO donors are known to cause a fall in blood pressure, particularly when administered intravenously.

[3] = system: cGMP production in platelets; test: Platelet cGMP in vitro (acetylation enzyme immunoassay); assay type: cell-based; settings: human washed platelets; B-NOD 10, 100 or 1000 μM, 10 minutes
Procedure: Washed platelets were prepared from human blood as described above. 400 μl aliquots were incubated in the presence of B-NOD (10, 100 or 1000 μM) or methanol for 10 minutes. Incubations were terminated by centrifugation at 1000 g and the supernatant was removed. Ice-cold phosphate buffer was added to the pellets, and the pellets were sonicated for 20 seconds. cGMP was measured using an acetylation enzyme immunoassay system (Biotrak, Piscataway, N.J.).

platelet aggregation = test: Platelet aggregation in vitro, thrombin as agonist (nephelometric aggregometer); assay type: cell-based, New Zealand rabbits; settings: rabbit washed platelets; B-NOD 10, 100 or 1000 μM, 10 min preincubation; thrombin 0.04 to 0.14 U/ml
Procedure: Healthy male New Zealand rabbits were anesthetized with pentobarbital (10 mg/kg iv), ketamine (40 mg/kg im), xylazine (10 mg/kg im) and atropine (0.5 mg im). They were […] and mechanically ventilated with 95% oxygen (rate 40 strokes/min, tidal volume 25 ml). The heart was exposed with a median sternotomy, blood (40 ml) was collected from the right ventricle and washed platelets were prepared as described above. Platelet aggregation was monitored by a standard nephelometric technique in which 0.5 ml of platelet suspension (2×10^8 platelets/ml) were incubated at 37° C. and stirred at 1000 rpm in an aggregometer (Model PAP-3, Bio/Data corporation, Horsham, Pa.). The antiaggregant effects of B-NOD (10, 100 or 1000 μM) were tested by incubating platelets with B-NOD at 37.8° C. before the addition of thrombin. Incubation was carried out for 10 min. Thrombin was used as an agonist at relatively low concentrations (0.04 to 0.14 U/ml) to obtain submaximal aggregation in order to evaluate the drug's inhibitory effect.

[4] = Nitric oxide generation in vivo, plasma NOx after oral administration; design: species or system New Zealand White male rabbits; settings: 80 mg/kg orally, rabbits
Procedure: as §3, §4

O=C(Oc1cccc(CO[N+](=O)[O-])c1)c1ccccc1O [B-NOD, 3-(nitrooxymethyl)phenyl 2-hydroxybenzoate]
maximal NO release (washed platelets; in the presence of platelets (2×10^8 platelets/ml), 10 minutes): 156 µmol/L | NO production (NOx) (washed platelets; with platelets): increased NO production in a dose-dependent manner | NO production (NOx) [1]: increased NO production in a dose-dependent manner | maximal NO release ([1]; 37° C., 10 minutes): 98 µmol/L | diastolic pressure [2]: did not affect | heart rate [2]: failed to change | systolic pressure [2]: did not affect | cyclic GMP production in platelets [3]: increased cyclic GMP production in a dose-dependent manner | inhibition of platelet aggregation as compared to the control (platelet aggregation): approximately 25% | NOx concentration in plasma after 24 hours ([4]; 24 hours): returned to control values | NOx concentration in plasma, course to seven hours ([4]; seven hours following administration): plateaued for seven hours | NOx concentration in plasma ([4]; three hours following administration (increase from 59 before administration)): 115 µmol/L
